This assay deals with coronavirus (COVID-19). The experiment in a line: Observational case: older coronavirus contact with impending right heart failure treated with statin. The assay is classed as in vivo. The settings on record: person. From the text:
An older person developed signs and symptoms of vascular inflammation and right heart failure. This included occasional headaches, flashes in vision, general fatigue, irritability, muscle pains, epigastric pain, general abdominal distention, inability to eat and circulatory congestion, salty or blood taste in sputum. […] The impending right heart failure was thought to be secondary to myocarditis, circulatory congestion due to poor blood flow as a result of vascular inflammation and sticky walls of blood vessels. The contact was within 6 hours having intermittent chest pains, sweating, and dizziness. Cardiac arrest was thought to be a possible poor outcome leading to mortality. The medical team discussed interventions necessary with statins, with the intention of reducing blood sticking to blood vessels. […] The patient commenced treatment immediately with good results in 3 days' time. The abdominal swelling which was A sign of right heart failure subsided, abdominal pain reduced and the patient was able to eat with circulatory congestion eased.

[1] abbreviates: 20 mg daily, with OMEGA 3 based vitamin oil.

Molecules are shown by their SMILES.

On to `CC(C)c1nc(N(C)S(C)(=O)=O)nc(-c2ccc(F)cc2)c1/C=C/[C@@H](O)C[C@@H](O)CC(=O)O` [rosuvastatin], for which, where the note is “coronavirus contact, 20 mg daily for two weeks, concomitantly with OMEGA 3 based vitamin oil daily”, the “right heart failure outcome” value was “prevented this patient from going into right heart failure”. Besides, the circulation result (coronavirus contact, 20 mg daily for two weeks, with OMEGA 3 based vitamin oil) is “restored circulation”. In addition, under setting [1], the “abdominal swelling (sign of right heart failure)” value is “subsided” and the “time to good results after start of treatment” value turned out to be 3 days.
